These molecules were tested against T1, human BTK (Homo sapiens, UniProt Q06187) (assay: BTK inhibition assay: BTK-mediated phosphorylation of FAM-labeled substrate 5-FAM-EEPLYWSFPAKKK-NH2 (Caliper LC-3000)). Settings: pIC50 = -log(IC50), IC50 molar; residues 382 to 659 of human BTK; incubated at room temperature for 60 minutes; larger values represent higher potency.
T1 construct: GST (Glutathione-S-Transferase) (cleaved yes); made in house; host or cells: Spodoptera frugiperda Sf9 cells (baculovirus, Bac-to-Bac)
Assay type: biochemical
Description: The activity of compounds as BTK inhibitors may be determined by a variety of methods, including in vitro and in vivo methods.
This construct engineers an in-frame translational fusion with the Glutathione-S-Transferase (GST) protein for use in affinity purification. The fusion protein derived from this construct contains a protease recognition sequence to liberate the BTK from the GST affinity tag. High-titer baculoviral stocks, generated using the Bac-to-Bac® system (Invitrogen), are used to express the recombinant protein in Spodoptera frugiperda Sf9 cells in 10 L Wave bags. Recombinant proteins are isolated from cellular extracts by passage over Glutathione Sepharose 4B (GE Healthcare) and the BTK moiety is released from the GST affinity tag by treatment with PreScission protease. The BTK recombinant protein is further purified by size exclusion chromatography (HiLoad 16/60 Superdex 200, GE Healthcare) in a buffer containing 20 mM Hepes (pH 7.4), 50 mM NaCl, 10 mM MgCl2, 0.25 mM TCEP and 0.1 mM EDTA. The purity of the fractions is assessed by SDS PAGE and the peak protein fractions are pooled and concentrated using Amicon Ultra-15 Centrifugal Filter Devices (Millipore).
The inhibitory properties of compounds relative to BTK is determined using a black 384-well-plate format in a buffer which contains 50 mM Hepes, 10 mM NaCl, 10 mM MgCl2, 0.2 mM EDTA, 0.01% Brij35®, 1 mM DTT, and 0.1 mg/mL BSA at pH 7.3. The test compound is prepared in DMSO using 2-fold serial dilutions for 11 data points, which are added to the buffer so that each dilution contains 3% DMSO. […] The reaction mixtures are incubated at room temperature for 60 minutes and then quenched by adding 25 μL of 50 mM EDTA. To quantify the fluorescent-labeled substrate and product following reaction, the test plate is loaded on a Caliper LC-3000, which measures percent of conversion by microfluidic-based separation.
The compounds were tested in accordance with the assay described on page 34 of the specification.

T1 sequence (Q06187 382-659): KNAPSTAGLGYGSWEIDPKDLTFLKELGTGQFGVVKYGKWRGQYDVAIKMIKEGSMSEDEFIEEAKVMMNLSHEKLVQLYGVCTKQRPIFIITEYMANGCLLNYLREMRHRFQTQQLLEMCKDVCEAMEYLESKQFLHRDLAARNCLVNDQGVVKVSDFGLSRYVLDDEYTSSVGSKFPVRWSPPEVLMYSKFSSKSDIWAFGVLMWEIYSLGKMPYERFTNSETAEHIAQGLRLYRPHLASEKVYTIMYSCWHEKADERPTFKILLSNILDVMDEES

| Compound | IC50 |
| --- | --- |
| Cn1ncc2ccc(-c3cccc4c(N)c(C(N)=O)nnc34)cc21 [Example 1, 4-amino-8-(1-methyl-1H-indazol-6-yl)cinnoline-3-carboxam] | 1580 nM |
| Cn1ncc2cc(-c3cccc4c(N)c(C(N)=O)nnc34)ccc21 [Example 2, 4-amino-8-(1-methyl-1H-indazol-5-yl)cinnoline-3-carboxamide] | 158 nM |
| NC(=O)c1nnc2c(-c3cnc4cc[nH]c4c3)cccc2c1N [Example 3, 4-amino-8-(1H-pyrrolo[3,2-b]pyridin-6-yl)cinnoline-3-carboxamide] | 316 nM |
| NC(=O)c1nnc2c(-c3ccc4nc[nH]c4c3)cccc2c1N [Example 4, 4-amino-8-(1H-benzo[d]imidazol-6-yl)cinnoline-3-carboxamide] | 79.4 nM |
| Cn1ccc2cc(-c3cccc4c(N)c(C(N)=O)nnc34)ccc21 [Example 5, 4-amino-8-(1-methyl-1H-indol-5-yl)cinnoline-3-carboxamide] | 3980 nM |
| NC(=O)c1nnc2c(-c3cc(F)c4c(c3)CC(=O)N4)cccc2c1N [Example 6, 4-amino-8-(7-fluoro-2-oxoindolin-5-yl)cinnoline-3-carboxamide] | 3160 nM |
| CN1CCc2cc(-c3cccc4c(N)c(C(N)=O)nnc34)ccc21 [Example 7, 4-amino-8-(1-methylindolin-5-yl)cinnoline-3-carboxamide] | 5010 nM |
| NC(=O)c1nnc2c(-c3ccc4c(c3)CC(=O)N4)cccc2c1N [Example 8, 4-amino-8-(2-oxoindolin-5-yl)cinnoline-3-carboxamide] | 1260 nM |
| Cn1ccc2ccc(-c3cccc4c(N)c(C(N)=O)nnc34)cc21 [Example 9, 4-amino-8-(1-methyl-1H-indol-6-yl)cinnoline-3-carboxamide] | 1000 nM |
| NC(=O)c1nnc2c(-c3ccc4nccn4c3)cccc2c1N [Example 10, 4-amino-8-(imidazo[1,2-a]pyridin-6-yl)cinnoline-3-carboxamide] | 631 nM |
| Cn1cc2cc(-c3cccc4c(N)c(C(N)=O)nnc34)ccc2n1 [Example 11, 4-amino-8-(2-methyl-2H-indazol-5-yl)cinnoline-3-carboxamide] | 1000 nM |
| Cn1cnc2cc(-c3cccc4c(N)c(C(N)=O)nnc34)ccc21 [Example 12, 4-amino-8-(1-methyl-1H-benzo[d]imidazol-5-yl)cinnoline-3-carboxamide] | 15800 nM |
| Cn1cnc2cc(-c3cccc4c(N)c(C(N)=O)nnc34)cnc21 [Example 13, 4-amino-8-(3-methyl-3H-imidazo[4,5-b]pyridin-6-yl)cinnoline-3-carboxamide] | 39800 nM |
| NC(=O)c1nnc2c(-c3ccc4[nH]c(=O)[nH]c4c3)cccc2c1N [Example 14, 4-amino-8-(2-oxo-2,3-dihydro-1H-benzo[d]imidazol-5-yl)cinnoline-3-carboxamide] | 631 nM |
| Cc1nc2ccc(-c3cccc4c(N)c(C(N)=O)nnc34)cc2[nH]1 [Example 16, 4-amino-8-(2-methyl-1H-benzo[d]imidazol-6-yl)cinnoline-3-carboxamide] | 794 nM |
| CC(C)n1cnc2cc(-c3cccc4c(N)c(C(N)=O)nnc34)ccc21 [Example 17, 4-amino-8-(1-isopropyl-1H-benzo[d]imidazol-5-yl)cinnoline-3-carboxamide] | 50100 nM |
| NC(=O)c1nnc2c(-c3ccc4c(c3)ncn4C3CCCCC3)cccc2c1N [Example 18, 4-amino-8-(1-cyclohexyl-1H-benzo[d]imidazol-5-yl)cinnoline-3-carboxamide] | 1260 nM |
| CC(C)(C)n1cnc2cc(-c3cccc4c(N)c(C(N)=O)nnc34)ccc21 [Example 19, 4-amino-8-(1-tert-butyl-1H-benzo[d]imidazol-5-yl)cinnoline-3-carboxamide] | 15800 nM |
| NC(=O)c1nnc2c(-c3ccc4c(c3)NC(=O)C4)cccc2c1N [Example 20, 4-amino-8-(2-oxoindolin-6-yl)cinnoline-3-carboxamide] | 39800 nM |
| Cc1ccc2c(N)c(C(N)=O)nnc2c1-c1cnc2cc[nH]c2c1 [Example 21, 4-amino-7-methyl-8-(1H-pyrrolo[3,2-b]pyridin-6-yl)cinnoline-3-carboxamide] | 126 nM |
| Cc1ccc2c(N)c(C(N)=O)nnc2c1-c1ccc2nc[nH]c2c1 [Example 22, 4-amino-8-(1H-benzo[d]imidazol-6-yl)-7-methylcinnoline-3-carboxamide] | 15.8 nM |

| Compound | IC50 |
| --- | --- |
| Cc1ccc2c(N)c(C(N)=O)nnc2c1-c1ccc2ncn(C)c2c1 [Example 23, 4-amino-7-methyl-8-(1-methyl-1H-benzo[d]imidazol-6-yl)cinnoline-3-carboxamide] | 50.1 nM |
| Cc1ccc2c(N)c(C(N)=O)nnc2c1-c1ccc2[nH]ccc2c1 [Example 24, 4-amino-8-(1H-indol-5-yl)-7-methylcinnoline-3-carboxamide] | 251 nM |
| Cc1ccc2c(N)c(C(N)=O)nnc2c1-c1ccc2c(cnn2C)c1 [Example 25, 4-amino-7-methyl-8-(1-methyl-1H-indazol-5-yl)cinnoline-3-carboxamide] | 31.6 nM |
| Cc1ccc2c(N)c(C(N)=O)nnc2c1-c1ccc2cc[nH]c2c1 [Example 26, 4-amino-8-(1H-indol-6-yl)-7-methylcinnoline-3-carboxamide] | 158 nM |
| NC(=O)c1nnc2c(-c3ccc4[nH]ccc4c3)cccc2c1N [Example 27, 4-amino-8-(1H-indol-5-yl)cinnoline-3-carboxamide] | 1580 nM |
| Cc1ccc2c(N)c(C(N)=O)nnc2c1-c1ccc2cn[nH]c2c1 [Example 28, 4-amino-8-(1H-indazol-6-yl)-7-methylcinnoline-3-carboxamide] | 7.94 nM |
| Cc1c(-c2cccc3c(N)c(C(N)=O)nnc23)ccc2c1cnn2C [Example 30, 4-amino-8-(1,4-dimethyl-1H-indazol-5-yl)cinnoline-3-carboxamide] | 316 nM |
| Cc1c(-c2cccc3c(N)c(C(N)=O)nnc23)ccc2[nH]ncc12 [Example 31, 4-amino-8-(4-methyl-1H-indazol-5-yl)cinnoline-3-carboxamide] | 39.8 nM |
| Cc1ccc2c(N)c(C(N)=O)nnc2c1-c1cc(C)c2c(cnn2C)c1 [Example 32, 4-amino-8-(1,7-dimethyl-1H-indazol-5-yl)-7-methylcinnoline-3-carboxamide] | 50.1 nM |
| Cc1ccc2c(N)c(C(N)=O)nnc2c1-c1cc(C)c2[nH]ncc2c1 [Example 33, 4-amino-7-methyl-8-(7-methyl-1H-indazol-5-yl)cinnoline-3-carboxamide] | 50.1 nM |
| Cn1ncc2cc(-c3cc(C(F)(F)F)cc4c(N)c(C(N)=O)nnc34)ccc21 [Example 34, 4-amino-8-(1-methyl-1H-indazol-5-yl)-6-(trifluoromethyl)cinnoline-3-carboxamide] | 1580 nM |
| Cn1ncc2cc(-c3c(C(F)(F)F)ccc4c(N)c(C(N)=O)nnc34)ccc21 [Example 35, 4-amino-8-(1-methyl-1H-indazol-5-yl)-7-(trifluoromethyl)cinnoline-3-carboxamide] | 79.4 nM |
| Cc1ccc2c(N)c(C(N)=O)nnc2c1-c1ccc2c(c1)c(C)nn2C [Example 36, 4-amino-8-(1,3-dimethyl-1H-indazol-5-yl)-7-methylcinnoline-3-carboxamide] | 501 nM |
| Cc1nn(C)c2ccc(-c3cccc4c(N)c(C(N)=O)nnc34)cc12 [Example 37, 4-amino-8-(1,3-dimethyl-1H-indazol-5-yl)cinnoline-3-carboxamide] | 3980 nM |
| COc1ccc(-c2ccc3cn[nH]c3c2)c2nnc(C(N)=O)c(N)c12 [Example 38, 4-amino-8-(1H-indazol-6-yl)-5-methoxycinnoline-3-carboxamide] | 39.8 nM |
| COc1ccc(-c2cc3[nH]ncc3cc2C)c2nnc(C(N)=O)c(N)c12 [Example 39, 4-amino-5-methoxy-8-(5-methyl-1H-indazol-6-yl)cinnoline-3-carboxamide] | 7.94 nM |
| COc1ccc2c(N)c(C(N)=O)nnc2c1-c1ccc2cn[nH]c2c1 [Example 41, 4-amino-8-(1H-indazol-6-yl)-7-methoxycinnoline-3-carboxamide] | 25.1 nM |
| COc1cc(C)c(-c2ccc3cn[nH]c3c2)c2nnc(C(N)=O)c(N)c12 [Example 42, 4-amino-8-(1H-indazol-6-yl)-5-methoxy-7-methylcinnoline-3-carboxamide] | 10 nM |
| Cc1cc2cn[nH]c2cc1-c1ccc(F)c2c(N)c(C(N)=O)nnc12 [Example 43, 4-amino-5-fluoro-8-(5-methyl-1H-indazol-6-yl)cinnoline-3-carboxamide] | 6.31 nM |
| Cc1cc2cnn(C)c2cc1-c1cccc2c(N)c(C(N)=O)nnc12 [Example 44, 4-amino-8-(1,5-dimethyl-1H-indazol-6-yl)cinnoline-3-carboxamide] | 501 nM |

From patent publication US9365566B2 (Takeda Pharmaceutical Company Limited, priority 2012, dated 2016)
